Laboratory results: ChEMBL document CHEMBL5143695, “Benzobis(imidazole) derivatives as STAT3 signal inhibitors with antitumor activity” (Bioorg Med Chem, 2022)
The source made the active and inactive calls. The rule behind the calls is not given here.

Key:
HepG2 [1] = experiment: Induction of apoptosis in human HepG2 cells assessed as necrotic cells at 5 uM incubated for 48 hrs by Annexin V/PI staining based flow cytometry method (reference value: 0.57%); format: functional
[2] = Cytotoxicity against HEK-Blue IL-6 cells; format: toxicity, cell-based; conditions: human
HepG2 [3] = experiment: Antitumor activity against human HepG2 cells assessed as reduction in cell viability incubated for 72 hrs by MTT assay; format: functional, cell-based; conditions: HepG2, 72 h
ECa-109 cell line [4] = experiment: Antitumor activity against human EC109 cells assessed as reduction in cell viability incubated for 72 hrs by MTT assay; format: functional, cell-based; conditions: ECa-109, 72 h
[5] = target: Signal transducer and activator of transcription 3 (Homo sapiens) (UniProt P40763); experiment: Inhibition of STAT3 phosphorylation at Y705 residue in human HepG2 cells measured after 16 hrs by Western blotting analysis; format: cell-based; conditions: dose 2.5-20 µM, DDE = dose-dependent effect
Chain of Signal transducer and activator of transcription 3 (Homo sapiens) (P40763 whole entry): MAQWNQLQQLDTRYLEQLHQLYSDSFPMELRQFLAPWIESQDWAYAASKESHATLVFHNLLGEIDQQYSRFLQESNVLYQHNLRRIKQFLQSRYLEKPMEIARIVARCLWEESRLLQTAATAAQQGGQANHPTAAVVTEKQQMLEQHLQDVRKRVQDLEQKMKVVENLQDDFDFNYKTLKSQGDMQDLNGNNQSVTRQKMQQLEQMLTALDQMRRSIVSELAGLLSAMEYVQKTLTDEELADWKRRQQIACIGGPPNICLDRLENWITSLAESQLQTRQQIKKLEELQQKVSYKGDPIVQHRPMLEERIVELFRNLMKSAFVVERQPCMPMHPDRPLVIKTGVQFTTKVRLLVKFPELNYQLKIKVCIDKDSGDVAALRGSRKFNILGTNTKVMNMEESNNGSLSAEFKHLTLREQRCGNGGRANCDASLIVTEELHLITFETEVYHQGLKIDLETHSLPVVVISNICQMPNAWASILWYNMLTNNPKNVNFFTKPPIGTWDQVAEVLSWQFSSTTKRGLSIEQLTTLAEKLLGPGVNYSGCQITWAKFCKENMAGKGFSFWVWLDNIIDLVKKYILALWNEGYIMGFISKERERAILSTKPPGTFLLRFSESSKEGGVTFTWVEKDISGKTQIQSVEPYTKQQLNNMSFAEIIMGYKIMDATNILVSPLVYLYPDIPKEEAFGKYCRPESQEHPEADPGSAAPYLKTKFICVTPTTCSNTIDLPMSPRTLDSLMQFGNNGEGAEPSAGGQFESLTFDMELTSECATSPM

[6] = target: Signal transducer and activator of transcription 3 (Homo sapiens) (UniProt P40763); experiment: Inhibition of STAT3 phosphorylation at Y705 residue in human EC109 cells measured after 16 hrs by Western blotting analysis; format: cell-based; conditions: dose 2.5-20 µM, DDE = dose-dependent effect
[7] = target: Signal transducer and activator of transcription 3 (Homo sapiens) (UniProt P40763); experiment: Inhibition of STAT3 nuclear translocation in human HepG2 cells assessed as decrease in nuclear STAT3 level at 5 to 10 microM incubated overnight by immunofluorescence analysis; format: cell-based; conditions: dose 5-10 µM
[8] = target: Signal transducer and activator of transcription 3 (Homo sapiens) (UniProt P40763); experiment: Inhibition of IL-6 induced STAT3 phosphorylation at Tyr705 residue in human HepG2 cells preincubated for 16 hrs followed by IL-6 stimulation for 30 mins by Western blot analysis; format: cell-based; conditions: dose 2.5-20 µM, DDE = dose-dependent effect
HepG2 [9] = experiment: Induction of apoptosis in human HepG2 cells assessed as late apoptotic cells at 5 uM incubated for 48 hrs by Annexin V/PI staining based flow cytometry method (reference value: 3.64%); format: functional
HepG2 [10] = experiment: Induction of apoptosis in human HepG2 cells assessed as viable cells at 10 uM incubated for 48 hrs by Annexin V/PI staining based flow cytometry method (reference value: 92.5%); format: functional; conditions: read-out: Activity
HepG2 [11] = experiment: Induction of apoptosis in human HepG2 cells assessed as late apoptotic cells at 10 uM incubated for 48 hrs by Annexin V/PI staining based flow cytometry method (reference value: 3.64%); format: functional
HepG2 [12] = experiment: Induction of apoptosis in human HepG2 cells assessed as viable cells at 20 uM incubated for 48 hrs by Annexin V/PI staining based flow cytometry method (reference value: 92.5%); format: functional; conditions: read-out: Activity
HepG2 [13] = experiment: Induction of apoptosis in human HepG2 cells assessed as early apoptotic cells at 20 uM incubated for 48 hrs by Annexin V/PI staining based flow cytometry method (reference value: 3.31%); format: functional
HepG2 [14] = experiment: Induction of apoptosis in human HepG2 cells assessed as late apoptotic cells at 20 uM incubated for 48 hrs by Annexin V/PI staining based flow cytometry method (reference value: 3.64%); format: functional
HepG2 [15] = experiment: Induction of apoptosis in human HepG2 cells assessed as necrotic cells at 20 uM incubated for 48 hrs by Annexin V/PI staining based flow cytometry method (reference value: 0.57%); format: functional
ECa-109 cell line [16] = experiment: Induction of apoptosis in human EC109 cells assessed as viable cells at 5 uM incubated for 48 hrs by Annexin V/PI staining based flow cytometry method (reference value: 91.7%); format: functional; conditions: read-out: Activity
ECa-109 cell line [17] = experiment: Induction of apoptosis in human EC109 cells assessed as late apoptotic cells at 5 uM incubated for 48 hrs by Annexin V/PI staining based flow cytometry method (reference value: 6.17%); format: functional
ECa-109 cell line [18] = experiment: Induction of apoptosis in human EC109 cells assessed as necrotic cells at 5 uM incubated for 48 hrs by Annexin V/PI staining based flow cytometry method (reference value: 0.73%); format: functional
ECa-109 cell line [19] = experiment: Induction of apoptosis in human EC109 cells assessed as viable cells at 10 uM incubated for 48 hrs by Annexin V/PI staining based flow cytometry method (reference value: 91.7%); format: functional; conditions: read-out: Activity
ECa-109 cell line [20] = experiment: Induction of apoptosis in human EC109 cells assessed as early apoptotic cells at 10 uM incubated for 48 hrs by Annexin V/PI staining based flow cytometry method (reference value: 1.36%); format: functional
ECa-109 cell line [21] = experiment: Induction of apoptosis in human EC109 cells assessed as late apoptotic cells at 10 uM incubated for 48 hrs by Annexin V/PI staining based flow cytometry method (reference value: 6.17%); format: functional
ECa-109 cell line [22] = experiment: Induction of apoptosis in human EC109 cells assessed as necrotic cells at 10 uM incubated for 48 hrs by Annexin V/PI staining based flow cytometry method (reference value: 0.73%); format: functional
ECa-109 cell line [23] = experiment: Induction of apoptosis in human EC109 cells assessed as early apoptotic cells at 20 uM incubated for 48 hrs by Annexin V/PI staining based flow cytometry method (reference value: 1.36%); format: functional
ECa-109 cell line [24] = experiment: Induction of apoptosis in human EC109 cells assessed as late apoptotic cells at 20 uM incubated for 48 hrs by Annexin V/PI staining based flow cytometry method (reference value: 6.17%); format: functional
HepG2 [25] = experiment: Induction of apoptosis in human HepG2 cells assessed as downregulation of MCL-1 protein expression by Western blotting analysis; format: functional, cell-based; conditions: dose 2.5-20 µM, DDE = dose-dependent effect
ECa-109 cell line [26] = experiment: Induction of apoptosis in human EC109 cells assessed as downregulation of MCL-1 protein expression by Western blotting analysis; format: functional, cell-based; conditions: dose 2.5-20 µM, DDE = dose-dependent effect
HepG2 [27] = experiment: Induction of apoptosis in human HepG2 cells assessed as downregulation of cyclin D1 protein expression by Western blotting analysis; format: functional, cell-based; conditions: dose 2.5-20 µM, DDE = dose-dependent effect
ECa-109 cell line [28] = experiment: Induction of apoptosis in human EC109 cells assessed as downregulation of cyclin D1 protein expression by Western blotting analysis; format: functional, cell-based; conditions: dose 2.5-20 µM, DDE = dose-dependent effect
HepG2 [29] = experiment: Induction of cell cycle arrest in human HepG2 cells assessed as accumulation of cells at G0/G1 phase incubated for 24 hrs by flow cytometric analysis (reference value: 66.65%); format: functional
HepG2 [30] = experiment: Induction of cell cycle arrest in human HepG2 cells assessed as decrease in cells at S phase incubated for 24 hrs by flow cytometric analysis (reference value: 23.01%); format: functional; set-up: scale not given: the % may be the effect or the level left
ECa-109 cell line [31] = experiment: Induction of cell cycle arrest in human EC109 cells assessed as decrease in cells at S phase incubated for 24 hrs by flow cytometric analysis (reference value: 36.08%); format: functional; set-up: scale not given: the % may be the effect or the level left
HepG2 [32] = experiment: Induction of cell cycle arrest in human HepG2 cells assessed as downregulation of cyclin D1 protein expression by Western blotting analysis; format: functional, cell-based; conditions: dose 2.5-20 µM, DDE = dose-dependent effect
ECa-109 cell line [33] = experiment: Induction of cell cycle arrest in human EC109 cells assessed as downregulation of cyclin D1 protein expression by Western blotting analysis; format: functional, cell-based; conditions: dose 2.5-20 µM, DDE = dose-dependent effect
HepG2 [34] = experiment: Inhibition of cell migration in human HepG2 cells incubated for 48 hrs by microscopic analysis based wound healing assay; format: functional; conditions: dose 5-10 µM, DDE = dose-dependent effect
ECa-109 cell line [35] = experiment: Inhibition of cell migration in human EC109 cells incubated for 48 hrs by microscopic analysis based wound healing assay; format: functional; conditions: dose 5-10 µM, DDE = dose-dependent effect
HepG2 [36] = experiment: Antitumor activity against human HepG2 cells xenografted in BALB/c athymic nude mouse assessed as tumor growth inhibition at 20 mg/kg, ip administered daily for 24 days relative to control; format: functional; conditions: HepG2, 576 h, time 24 day, read-out: TGI
[37] = Toxicity in BALB/c athymic nude mouse xenografted with human HepG2 cells assessed as effect on body weight at 20 to 40 mg/kg, ip administered daily for 24 days; format: organism-based; conditions: in vivo, 576 h, dose 20-40 mg/kg, time 24 day

## CCCn1c(-c2cccc(OC)c2)nc2cc3nc(-c4cccc(OC)c4)n(CCC)c3cc21
HepG2 [1]
  Activity: 1.54%
[2]
  IC50: > 10 µM
HepG2 [3]
  IC50: 4.3 µM
ECa-109 cell line [4]
  IC50: 3.63 µM
[5]
  inhibition: Dde
[6]
  inhibition: Dde
[7]
  inhibition: Active
[8]
  inhibition: Dde
HepG2 [9]
  Activity: 13.4%
HepG2 [10]
  viability at 10 µM: 39.5%
HepG2 [11]
  Activity: 39.4%
HepG2 [12]
  viability at 20 µM: 17.3%
HepG2 [13]
  Activity: 29.9%
HepG2 [14]
  Activity: 51.9%
HepG2 [15]
  Activity: 0.91%
ECa-109 cell line [16]
  viability at 5 µM: 85.8%
ECa-109 cell line [17]
  Activity: 11%
ECa-109 cell line [18]
  Activity: 0.87%
ECa-109 cell line [19]
  viability at 10 µM: 70.5%
ECa-109 cell line [20]
  Activity: 11.2%
ECa-109 cell line [21]
  Activity: 17.2%
ECa-109 cell line [22]
  Activity: 1.1%
ECa-109 cell line [23]
  Activity: 18.2%
ECa-109 cell line [24]
  Activity: 31.4%
HepG2 [25]
  Activity: Dde
ECa-109 cell line [26]
  Activity: Dde
HepG2 [27]
  Activity: Dde
ECa-109 cell line [28]
  Activity: Dde
HepG2 [29]
  Activity: 74.51%
HepG2 [30]
  Activity: 16.55%
ECa-109 cell line [31]
  Activity: 28.53%
HepG2 [32]
  Activity: Dde
ECa-109 cell line [33]
  Activity: Dde
HepG2 [34]
  inhibition: Dde
ECa-109 cell line [35]
  inhibition: Dde
HepG2 [36]
  inhibition in vivo at 20 mg/kg: 42.5%
[37]
  Activity: Non-Toxic
